Experiments:
NCI-H522 = test: panel of 60 human tumor cell lines, growth inhibition (Non-Small Cell Lung Cancer); details: NCI-H522
A549/ATCC = test: as above; details: A549/ATCC
HCT-15 = test: panel of 60 human tumor cell lines, growth inhibition (Colon Cancer); details: HCT-15
UACC-257 = test: panel of 60 human tumor cell lines, growth inhibition (Melanoma); details: UACC-257
IGROV1 = test: panel of 60 human tumor cell lines, growth inhibition (Ovarian Cancer); details: IGROVI
NCI-H23 = test: panel of 60 human tumor cell lines, growth inhibition (Non-Small Cell Lung Cancer); details: NCI-H23
BT-549 = test: panel of 60 human tumor cell lines, growth inhibition (Breast Cancer)
OVCAR-3 = test: panel of 60 human tumor cell lines, growth inhibition (Ovarian Cancer); details: OVCAR-3
MDA-MB-468 = test: panel of 60 human tumor cell lines, growth inhibition (Breast Cancer); details: MDA-MB-468
CCRF-CEM = test: panel of 60 human tumor cell lines, growth inhibition (Leukemia)
RXF 393 = test: panel of 60 human tumor cell lines, growth inhibition (Renal Cancer); details: RXF 393
MCF7 = test: panel of 60 human tumor cell lines, growth inhibition (Breast Cancer); details: MCF7
SK-OV-3 = test: panel of 60 human tumor cell lines, growth inhibition (Ovarian Cancer); details: SK-OV-3
TK-10 = test: panel of 60 human tumor cell lines, growth inhibition (Renal Cancer); details: TK-10
HOP-92 = test: panel of 60 human tumor cell lines, growth inhibition (Non-Small Cell Lung Cancer); details: HOP-92
SK-MEL-5 = test: panel of 60 human tumor cell lines, growth inhibition (Melanoma); details: 8K-MEL-5
COLO 205 = test: panel of 60 human tumor cell lines, growth inhibition (Colon Cancer); details: COLO 205
OVCAR-8 = test: panel of 60 human tumor cell lines, growth inhibition (Ovarian Cancer); details: OVCAR-8

With `C=C1C(=O)O[C@H]2[C@H]1CC/C(COC(=O)NCCN1CCCCC1)=C\CC[C@@]1(C)O[C@@H]21` [JVM 2-13] the GI50 (NCI-H522) was 1.12 µM, the TGI (NCI-H522) was 2.86 µM and the “Percent Growth” value (NCI-H522; Log10 Concentration −4.0) was −65%. The “Percent Growth” value (NCI-H522; Log10 Concentration −5.0) was −67%, the “Percent Growth” value (NCI-H522; Log10 Concentration −6.0) was 56% and the “Percent Growth” value (NCI-H522; Log10 Concentration −7.0) was 105%. The “Percent Growth” value (NCI-H522; Log10 Concentration −8.0) was 99%, the GI50 (A549/ATCC) was 18.1 µM and the TGI (A549/ATCC) was 42.2 µM. The “Percent Growth” value (A549/ATCC; Log10 Concentration −4.0) was −51%, the “Percent Growth” value (A549/ATCC; Log10 Concentration −5.0) was 85% and the “Percent Growth” value (A549/ATCC; Log10 Concentration −6.0) was 94%. For the same compound, the “Percent Growth” value (A549/ATCC; Log10 Concentration −7.0) was 98%, the “Percent Growth” value (A549/ATCC; Log10 Concentration −8.0) was 95% and the GI50 (HCT-15) was 3.08 µM. The TGI (HCT-15) was 13.1 µM, the “Percent Growth” value (HCT-15; Log10 Concentration −4.0) was −75% and the “Percent Growth” value (HCT-15; Log10 Concentration −5.0) was 10%. The “Percent Growth” value (HCT-15; Log10 Concentration −6.0) was 88%, the “Percent Growth” value (HCT-15; Log10 Concentration −7.0) was 95% and the “Percent Growth” value (HCT-15; Log10 Concentration −8.0) was 91%. For the same compound, the GI50 (UACC-257) was 4.99 µM, the TGI (UACC-257) was 19.2 µM and the “Percent Growth” value (UACC-257; Log10 Concentration −4.0) was −86%. The “Percent Growth” value (UACC-257; Log10 Concentration −5.0) was 34%, the “Percent Growth” value (UACC-257; Log10 Concentration −6.0) was 86% and the “Percent Growth” value (UACC-257; Log10 Concentration −7.0) was 92%. For the same compound, the “Percent Growth” value (UACC-257; Log10 Concentration −8.0) was 94%, the GI50 (IGROV1) was 5.59 µM and the TGI (IGROV1) was 22.9 µM. The “Percent Growth” value (IGROV1; Log10 Concentration −4.0) was −58%, the “Percent Growth” value (IGROV1; Log10 Concentration −5.0) was 33% and the “Percent Growth” value (IGROV1; Log10 Concentration −6.0) was 101%. For the same compound, the “Percent Growth” value (IGROV1; Log10 Concentration −7.0) was 106%, the “Percent Growth” value (IGROV1; Log10 Concentration −8.0) was 105% and the GI50 (NCI-H23) was 11.3 µM. For the same compound, the TGI (NCI-H23) was 27.2 µM, the “Percent Growth” value (NCI-H23; Log10 Concentration −4.0) was −74% and the “Percent Growth” value (NCI-H23; Log10 Concentration −5.0) was 57%. The “Percent Growth” value (NCI-H23; Log10 Concentration −6.0) was 104%, the “Percent Growth” value (NCI-H23; Log10 Concentration −7.0) was 100% and the “Percent Growth” value (NCI-H23; Log10 Concentration −8.0) was 98%. For the same compound, the TGI (BT-549) was 18.3 µM, the “Percent Growth” value (BT-549; 81-549, Log10 Concentration −4.0) was −96% and the “Percent Growth” value (BT-549; 81-549, Log10 Concentration −5.0) was 34%. The “Percent Growth” value (BT-549; 81-549, Log10 Concentration −6.0) was 89%, the “Percent Growth” value (BT-549; 81-549, Log10 Concentration −7.0) was 88% and the “Percent Growth” value (BT-549; 81-549, Log10 Concentration −8.0) was 83%. For the same compound, the GI50 (OVCAR-3) was 2.42 µM, the TGI (OVCAR-3) was 8.46 µM and the “Percent Growth” value (OVCAR-3; Log10 Concentration −4.0) was −97%. For the same compound, the “Percent Growth” value (OVCAR-3; Log10 Concentration −5.0) was −7%, the “Percent Growth” value (OVCAR-3; Log10 Concentration −6.0) was 85% and the “Percent Growth” value (OVCAR-3; Log10 Concentration −7.0) was 105%. The “Percent Growth” value (OVCAR-3; Log10 Concentration −8.0) was 108%, the CC50 (OVCAR-3; read-out: LC50) was 30.4 µM and the GI50 (MDA-MB-468) was 1.41 µM. For the same compound, the TGI (MDA-MB-468) was 4.47 µM, the “Percent Growth” value (MDA-MB-468; Log10 Concentration −4.0) was −68% and the “Percent Growth” value (MDA-MB-468; Log10 Concentration −5.0) was −35%. The “Percent Growth” value (MDA-MB-468; Log10 Concentration −6.0) was 65%, the “Percent Growth” value (MDA-MB-468; Log10 Concentration −7.0) was 95% and the “Percent Growth” value (MDA-MB-468; Log10 Concentration −8.0) was 99%. The GI50 (CCRF-CEM) was 3.03 µM, the TGI (CCRF-CEM) was 12.1 µM and the “Percent Growth” value (CCRF-CEM; Log10 Concentration −4.0) was −41%. The “Percent Growth” value (CCRF-CEM; Log10 Concentration −5.0) was 4%, the “Percent Growth” value (CCRF-CEM; Log10 Concentration −6.0) was 93% and the “Percent Growth” value (CCRF-CEM; Log10 Concentration −7.0) was 109%. The “Percent Growth” value (CCRF-CEM; Log10 Concentration −8.0) was 104%, the GI50 (RXF 393) was 2.11 µM and the TGI (RXF 393) was 8.93 µM. For the same compound, the “Percent Growth” value (RXF 393; Log10 Concentration −4.0) was −84%, the “Percent Growth” value (RXF 393; Log10 Concentration −5.0) was −4% and the “Percent Growth” value (RXF 393; Log10 Concentration −6.0) was 76%. The “Percent Growth” value (RXF 393; Log10 Concentration −7.0) was 86%, the “Percent Growth” value (RXF 393; Log10 Concentration −8.0) was 98% and the GI50 (MCF7) was 2.58 µM. The TGI (MCF7) was 11.4 µM, the “Percent Growth” value (MCF7; Log10 Concentration −4.0) was −64% and the “Percent Growth” value (MCF7; Log10 Concentration −5.0) was 4%. For the same compound, the “Percent Growth” value (MCF7; Log10 Concentration −6.0) was 82%, the “Percent Growth” value (MCF7; Log10 Concentration −7.0) was 91% and the “Percent Growth” value (MCF7; Log10 Concentration −8.0) was 87%. The GI50 (SK-OV-3) was 21 µM, the TGI (SK-OV-3) was 45.8 µM and the “Percent Growth” value (SK-OV-3; Log10 Concentration −4.0) was −50%. For the same compound, the “Percent Growth” value (SK-OV-3; Log10 Concentration −5.0) was 97%, the “Percent Growth” value (SK-OV-3; Log10 Concentration −6.0) was 97% and the “Percent Growth” value (SK-OV-3; Log10 Concentration −7.0) was 103%. The “Percent Growth” value (SK-OV-3; Log10 Concentration −8.0) was 92%, the GI50 (TK-10) was 2.88 µM and the TGI (TK-10) was 11.1 µM. The “Percent Growth” value (TK-10; Log10 Concentration −4.0) was −94%, the “Percent Growth” value (TK-10; Log10 Concentration −5.0) was 5% and the “Percent Growth” value (TK-10; Log10 Concentration −6.0) was 89%. For the same compound, the “Percent Growth” value (TK-10; Log10 Concentration −7.0) was 103%, the “Percent Growth” value (TK-10; Log10 Concentration −8.0) was 105% and the GI50 (HOP-92) was 1.58 µM. The TGI (HOP-92) was 11.2 µM, the “Percent Growth” value (HOP-92; Log10 Concentration −4.0) was −83% and the “Percent Growth” value (HOP-92; Log10 Concentration −5.0) was 4%. For the same compound, the “Percent Growth” value (HOP-92; Log10 Concentration −6.0) was 61%, the “Percent Growth” value (HOP-92; Log10 Concentration −7.0) was 76% and the “Percent Growth” value (HOP-92; Log10 Concentration −8.0) was 82%. The GI50 (SK-MEL-5) was 15.8 µM, the TGI (SK-MEL-5) was 30.4 µM and the “Percent Growth” value (SK-MEL-5; Log10 Concentration −4.0) was −91%. The “Percent Growth” value (SK-MEL-5; Log10 Concentration −5.0) was 85%, the “Percent Growth” value (SK-MEL-5; Log10 Concentration −6.0) was 99% and the “Percent Growth” value (SK-MEL-5; Log10 Concentration −7.0) was 101%. The “Percent Growth” value (SK-MEL-5; Log10 Concentration −8.0) was 100%, the GI50 (COLO 205) was 1.79 µM and the TGI (COLO 205) was 1.73 µM. The “Percent Growth” value (COLO 205; Log10 Concentration −4.0) was −75%, the “Percent Growth” value (COLO 205; Log10 Concentration −5.0) was −67% and the “Percent Growth” value (COLO 205; Log10 Concentration −6.0) was 90%. The “Percent Growth” value (COLO 205; Log10 Concentration −7.0) was 101%, the “Percent Growth” value (COLO 205; Log10 Concentration −8.0) was 92% and the GI50 (OVCAR-8) was 5.07 µM. The TGI (OVCAR-8) was 20 µM, the “Percent Growth” value (OVCAR-8; Log10 Concentration −4.0) was −75% and the “Percent Growth” value (OVCAR-8; Log10 Concentration −5.0) was 32%. The “Percent Growth” value (OVCAR-8; Log10 Concentration −6.0) was 93%, the “Percent Growth” value (OVCAR-8; Log10 Concentration −7.0) was 97% and the “Percent Growth” value (OVCAR-8; Log10 Concentration −8.0) was 100%.

From patent publication US9469650B2, “Melampomagnolide B derivatives” (BOARD OF TRUSTEES OF THE UNIVERSITY OF ARKANSAS, priority 2013, dated 2016)
